Test results reported in patent US20030119733A1, “Compositions and methods for inhibiting hepatocyte invasion by malarial sporozoites” (New York University, priority 1992, published 2003).
Entries after “also recorded” stand apart in the source; their conditions may differ. Where no end group is shown, it is not given here. The star is where a group is joined. Cam = NC(=O)C*

Key:
[1] = system: binding of CS27IVC to liver sections; test: Peptide inhibition of CS27IVC binding to frozen liver sections; set-up: species or system rat; settings: peptide preincubation, up to 500 μg/ml
Method: The procedure was carried out essentially as described by Dukor P. et al., Proc. Natl. Acad. Sci. USA 67:991-997, 1970 and Imai Y. et al., J. Cell. Biol. 111:1225-1232, 1990. Rats were euthanized with CO2. Small pieces of the liver, spleen, heart, brain and lung were removed, snap frozen in liquid nitrogen, embedded in Tissue Tek O.C.T. (Miles, Inc., Naperville, Ill.), and cut into 5 μm sections. Sections were dried for 30 min., fixed for 10 min. in 4% paraformaldehyde, rinsed three times with phosphate-buffered saline (PBS), and either used immediately or stored at 4° C. in 1% BSA, 0.5% Tween, PBS (BSA/TPBS). After blocking with 100 mM glycine (pH 7.2) and with BSA/TPBS, the sections were sequentially incubated at 37° C. with recombinant proteins for 1 hr, 10 μg/ml MAb 2A10 for 45 min., and rat anti-mouse immunoglobulin conjugated to fluorescein isothiocyanate (Boehringer Mannheim, Indianapolis, Ind.) for 45 min. The slides were counterstained for 10 min. with 0.3% Evans blue, rinsed extensively in PBS, and finally observed under a fluorescence microscope. For peptide inhibition experiments, the sections were first incubated with the peptide at various concentrations in BSA/TPBS for 1 hour at 37° C., washed six times with BSA/TPBS, and then stained with 2.5 μg/ml CS recombinant protein as described above. In a few experiments, the tissues were fixed for 10 min. with methanol, acetone, or 4% paraformaldehyde containing 0.5% glutaraldehyde.

[2] = system: binding of CSFZ (Cys) to HepG2 cells; test: Peptide inhibition of CSFZ (Cys) binding to HepG2 cells; set-up: species or system human; settings: peptides 0-250 μg/ml
Method: For indirect immunofluorescence, HepG2 cells (ATCC number HB8065, Rockville, Md.; Knowles, B. P., et al., Science 209:497-499, 1980) were grown on slides (Cel-Line Associates, Inc., Newfield, N.J.) overnight in minimum essential medium with 10% fetal calf serum (FCS-MEM; GIBCO, Grand Island, N.Y.), 1 mM L-glutamine (GIBCO), 3 mg/ml glucose (Sigma), 1×nonessential amino acids (GIBCO), 50 μg/ml penicillin, and 100 μg/ml streptomycin (GIBCO). For the enzyme-linked immunosorbent assay, 10^5 HepG2 cells were deposited in 96-well Falcon tissue culture plates (Becton Dickinson, Oxnard, Calif.) and grown for 24 hr. in FCS-MEM. The cells were fixed with 4% paraformaldehyde, washed three times with PBS, and stored at 4° C. in BSA/TPBS until use. Before the experiments, plates were blocked for 2 hr. at 37° C. with 1% gelatin, 0.05% Tween in PBS (pH 7.4) (gelatin/TPBS). The cells were sequentially incubated at 37° C. with 50 μl of recombinant protein diluted in gelatin/TPBS for 1 hr. MAb 2A10 at a concentration of 10 μg/ml for 30 min. and goat anti-mouse immunoglobulin conjugated to alkaline phosphatase (Boehringer Mannheim) for 30 min. […] After 15 min., fluorescence was read in a Fluoroskan II plate reader (Flow Lab Inc., McLean, Va.) with excitation filter 350 nm and emission filter 460 nm. In the peptide inhibition experiments, wells were first incubated for 1 hr. at 37° C. with peptides diluted in gelatin/TPBS, washed three times with gelatin/TPBS, and then incubated with recombinant CSFZ (Cys) at a concentration of 2.5 μg/ml for 1 hr. at 37° C.
The same assay system was used to evaluate the ability of the various synthetic peptides to inhibit the binding of CSFZ (Cys) to the HepG2 cells. Paraformaldehyde-fixed immobilized HepG2 cells were pre-incubated with peptides at concentrations between 0 and 250 μg/ml, washed, and incubated with CSFZ (Cys) at 2.5 μg/ml. After washing, the cells were incubated with MAb 2A10 followed by anti-mouse IgG conjugated to alkaline phosphatase. […] Each peptide concentration was assayed in triplicate wells and the means of the fluorescent reading were calculated. […] The cysteines and the sulfhydryl groups were necessary for inhibition (Pf1A, Pf1B and Pf2A were not active). […] The results are shown graphically in FIG. 7 wherein percent inhibition (after subtraction of background) is plotted as a function of peptide concentration. Pf1: open circles; Pf2: dark circles; Pf3: open upright triangles; Pf1A dark square; Pf1B open inverted triangles; Pf2A dark triangle; Pf70 open diamond; Pf25C dark diamond. Standard deviations were no greater than ±5% of the plotted mean.

[3] = system: Vivax-2 binding to sulfatide; test: Inhibition of binding of Vivax-2 to sulfatide; set-up: species or system P. vivax; settings: for effect on binding to sulfatide: 1 mg/ml
Method: (§1) Solid phase binding assays: Thirty μl of lipids or steroids dissolved in methanol (20-250 μg/ml) were dried into wells of microassay plates (Cat.# 3911—Falcon—Oxnard, Calif.). The plates were then blocked with 1% BSA/PBS pH 7.4 (BSA/PBS) for 30 minutes. Wells were incubated with recombinant protein (or with parasite extract) in PBS/BSA for 1 hour, washed 3 times with BSA/PBS, incubated for 1 hour with monoclonal antibodies 2F2 or 2A10 in BSA/PBS, washed 3 times, and then incubated with (10^5 cpm/well) ^125I protein A (Amersham Corp., Arlington Hts., Ill.). In the case of the P. berghei CS protein, wells were incubated with ^125I labelled mAb 3D11. Wells were washed again and the bound radioactive protein was counted in an LKB gamma-counter (model #1260, Pharmacia, Inc., Gaithersburg, Md.). For inhibition assays, the recombinant proteins were mixed with dilutions of the various polymers in BSA/PBS, the mixture was loaded into the wells of the microtiter plates, and the binding assay performed as above. See also, Roberts, et al. J. Biol. Chem. 260:9405-9411, 1985.

[4] = system: Vivax-2 binding to cholesterol-sulfate; test: Inhibition of binding of Vivax-2 to cholesterol-sulfate; set-up: species or system P. vivax
Method: as §1

P. berghei sporozoites = test: Infection assay of HepG2 cells with polymers; format: cell-based
Method: Infection assay: Semiconfluent monolayers of HepG2 cells were grown in 10% FCS/MEM on 8 chamber slides (#4808 Lab-tek -Naperville, Ill.) for 24 hours prior to each experiment. Sporozoites were pre-incubated in media alone or with the various polymers for 15 minutes at 4° C. 5×10^4 sporozoites, in a volume of 10 μl, were added per chamber. After 4 hours of incubation at 37° C., the medium containing the sporozoites was gently aspirated, and 0.5 ml MEM/10% FCS was added. Fresh medium was added at 18 hours and 28 hours, and then cells were fixed with methanol containing 0.3% H2O2 at 48 hours. After fixation, the wells were blocked with 10% FCS/PBS and were incubated with 10 μg/ml of mAb 2E6. Binding of the mAb was detected with a polyclonal goat anti-mouse Ig conjugated to horseradish peroxidase. […] The parasites in each well are counted under a 40× light microscope objective.
The cells were fixed and stained with mAb 2E6, followed by goat-anti-mouse linked to horseradish peroxidase. Numbers represent schizonts counted/20 fields under 40× magnification in a light microscope.

| Substance | inhibition of the binding of CS27IVC to liver sections [1] | inhibition of CSFZ (Cys) binding to HepG2 cells [2] | effect on binding to sulfatide [3] | % INHIBITION ([3]; inhibitor 1 mg/ml) | % INHIBITION ([4]; inhibitor 10 mg/ml) | other results |
| --- | --- | --- | --- | --- | --- | --- |
| PGSANKPKDELDYANDIEKK [Pf3, Contains only a C-proximal moiety of Region II+] | failed to inhibit; also recorded: No inhibition of binding | – | – | – | – | – |
| KPKHKKLKQPADGNPDPNAN [Pf70] | failed to inhibit | no inhibitory effect | – | – | – | – |
| chondroitin-sulfate A [CHONDROITIN SULFATE-A] | – | – | no effect | 0% | 16% | % INHIBITION ([4]; inhibitor 1 mg/ml): 0%; PARASITE # (exoerythrocytic liver stages in 20 microscope fields, duplicate) (P. berghei sporozoites; inhibitor 5 μg/ml present during invasion): 250; effect on sporozoite invasion (P. berghei sporozoites; present during invasion, 5-50 μg/ml): no effect |
| CGNGIQVRIKPGSANKPKDE [Pf2] | inhibited the binding of CS27IVC | inhibited the CSFZ (Cys) binding; also recorded: competes much less effectively | – | – | – | – |
| PXSVTXGNGIQVRIKPGSAN (PC(Cam)SVTC(Cam)GNGIQVRIKPGSAN) [Pf1B] | failed to inhibit | not active | – | – | – | – |
| PASVTAGNGIQVRIKPGSAN [Pf1A, Identical to Pf1 except alanine residues are substituted for the two cysteines] | failed to inhibit | not active | – | – | – | – |
| keratan-sulfate | – | – | no effect | 37% | 0% | – |
| AGNGIQVRIKPGSANKPKDE [Pf2A, Identical to Pf2 except the first cysteine has been replaced by an alanine residue] | failed to inhibit | not active | – | – | – | – |
| hyaluronic acid | – | – | no effect | 0% | 28% | % INHIBITION ([4]; inhibitor 1 mg/ml): 0% |
| PCSVTCGNGIQVRIKPGSAN [Pf1] | inhibited the binding of CS27IVC | inhibited the CSFZ (Cys) binding; also recorded: competes very effectively | – | – | – | – |
| chondroitin-sulfate B [CHONDROITIN SULFATE-B] | – | – | only slightly inhibitory | 34.3% | – | % INHIBITION ([3]; inhibitor 100 μg/ml): 22.3%; % INHIBITION ([4]; inhibitor 0 mg/ml (so in the source)): 51%; % INHIBITION ([4]; inhibitor 100 μg/ml): 0%; % INHIBITION ([4]; inhibitor 1 mg/ml): 27% |
| dermatan sulfate | – | – | no effect | – | – | – |
| chondroitin-sulfate C [CHONDROITIN SULFATE-C] | – | – | no effect | 0% | 0% | – |
